Reference: the OPERA property sets (Mansouri et al. 2018)

Settings: not given

| SMILES | melting point | ready biodegradability | boiling point | log10 Koc (L/kg) | log10 vapour pressure (mmHg) | log10 Henry constant (atm·m³/mol) |
| --- | --- | --- | --- | --- | --- | --- |
| Nc1ccc(N)nc1 | 110 °C | readily biodegradable | – | – | – | – |
| COc1ccc(C)cc1 | -32 °C | – | 176 °C | – | – | – |
| Brc1cscc1Br | 4.5 °C | – | 222 °C | – | – | – |
| O=[N+]([O-])c1ccc(CCO)cc1 | 63 °C | – | – | – | – | – |
| N#CC1(O)CCCCC1 | 35 °C | – | – | – | – | – |
| FC(F)=C(F)OC(F)(F)C(F)(F)C(F)(F)F | – | not readily biodegradable | – | – | – | – |
| OCCc1ccccn1 | -7.8 °C | – | – | 1.45 | – | – |
| CCCCCCCCCCCCC#N | 9.7 °C | – | 293 °C | – | – | – |
| CN1Cc2c(ccc3c2OCO3)[C@@H]2[C@H]1c1cc3c(cc1C[C@@H]2O)OCO3 | 136 °C | – | – | – | – | – |
| CCCCOC(=O)C(Cl)Cl | – | – | 194 °C | – | – | – |
| Clc1cncc(Cl)n1 | 56.5 °C | – | – | – | – | – |
| CC(=O)/C=C/C1C(C)=CCCC1(C)C (configuration not stated) | – | – | – | – | -1.76 | – |
| CC1C=CCC2C(=O)OC(=O)C12 (configuration not stated) | – | not readily biodegradable | – | – | – | – |
| O=C(O)CCCCC(=O)O | 153 °C | readily biodegradable | 338 °C | – | -6.5 | – |
| NCc1ccccc1 | – | readily biodegradable | 185 °C | – | -0.185 | – |
| FC(F)(F)C(F)(F)C(F)(F)C(F)(F)C(F)(F)C(F)(F)C(F)(F)C(F)(F)C(F)(F)C(F)(F)Br | – | – | 198 °C | – | – | – |
| CCOP(=S)(OCC)O/N=C(\C#N)c1ccccc1 | 6.1 °C | not readily biodegradable | – | – | -4.8 | – |
| CCS(=O)(=O)CCn1c([N+](=O)[O-])cnc1C | 128 °C | – | – | – | – | – |
| COC(OC)(OC)OC | -5 °C | – | 114 °C | – | – | – |
| C=CCOc1ccccc1 | – | – | 192 °C | – | – | – |
| C#CC=CC=C | -81 °C | – | 83.5 °C | – | – | – |
| Cc1cc(Cl)c2ccccc2n1 | 42.5 °C | – | 270 °C | – | – | – |

| SMILES | melting point | ready biodegradability | boiling point | log10 Koc (L/kg) | log10 vapour pressure (mmHg) | log10 Henry constant (atm·m³/mol) |
| --- | --- | --- | --- | --- | --- | --- |
| Clc1ccc(-c2cc(Cl)c(Cl)cc2Cl)c(Cl)c1 | – | – | – | – | -4.66 | -4.11 |
| CC(=O)[C@H]1CC[C@H]2[C@@H]3CC=C4C[C@@H](O)CC[C@]4(C)[C@H]3CC[C@]12C | 192 °C | – | – | – | – | – |
| C=CC(=O)Oc1c(Br)cc(Cl)c2cccnc12 | 100 °C | – | – | – | – | – |
| Cc1ccccc1N=Nc1c(N)ccc2ccccc12 | 126 °C | – | – | – | – | – |
| Fc1c(F)c(F)c(S)c(F)c1F | -24 °C | – | 143 °C | – | – | – |
| COP(=S)(OC)Oc1nc(Cl)c(Cl)cc1Cl | 43 °C | – | – | 3.52 | -4.38 | – |
| [N-]=[N+]=Nc1ccc(Br)cc1 | 20 °C | – | – | – | – | – |
| C=CCc1ccc(O)cc1 | 15.8 °C | – | 238 °C | – | – | – |
| CCCC(Br)CBr (configuration not stated) | – | – | – | – | 0.153 | – |
| O=C(O)c1ccccc1F | 126 °C | – | – | – | – | – |
| Oc1ccccc1Cc1ccccc1O | – | not readily biodegradable | – | – | – | – |
| Brc1cccc2ccccc12 | -1.8 °C | – | 281 °C | – | -2.01 | – |
| C/N=C(\NC)NCc1ccccc1 | 196 °C | – | – | – | – | – |
| CCCCS(=O)(=O)CCCC | 45 °C | – | 291 °C | – | – | – |
| CCCC=C(CCCC)CCCC | – | – | 216 °C | – | – | – |
| CCOC(=O)COc1cccc2ccccc12 | 56.5 °C | – | – | – | – | – |
| CCOC(=O)CSCCC1NC(C(=O)O)CS1 (configuration not stated) | 142 °C | – | – | – | – | – |
| C[Si](C)(Oc1ccccc1)Oc1ccccc1 | -23 °C | – | – | – | – | – |
| CC1(C)OC(c2ccco2)CN1C(=O)C(Cl)Cl (configuration not stated) | 97 °C | – | – | – | -7.31 | – |
| Nc1nc(N)nc(NC2CC2)n1 | 225 °C | – | – | 2.3 | -8.47 | – |
| Oc1cccc(Nc2ccccc2)c1 | 81.5 °C | – | 340 °C | – | – | – |
| Cc1cccc(N(C)C(=S)Oc2ccc3c(c2)C2CCC3C2)c1 (configuration not stated) | 93 °C | – | – | – | – | – |

| SMILES | melting point | ready biodegradability | boiling point | log10 Koc (L/kg) | log10 vapour pressure (mmHg) | log10 Henry constant (atm·m³/mol) |
| --- | --- | --- | --- | --- | --- | --- |
| C1COCOC1 | -45 °C | – | 106 °C | – | – | – |
| CC(C)(C)c1cc(Cc2cc(C(C)(C)C)c(O)c(C(C)(C)C)c2)cc(C(C)(C)C)c1O | – | not readily biodegradable | – | – | – | – |
| COc1c2c(cc3c1OCO3)CCN(C)C2 | 56 °C | – | – | – | – | – |
| CCC(C)C1CCCCC1 (configuration not stated) | – | – | 179 °C | – | 0.37 | – |
| CCCCCCCCCC(=O)CCCCCCCCC | 65.5 °C | – | – | – | – | – |
| CCCCCCC1CCCC1 | -73 °C | – | 203 °C | – | – | – |
| CC(=O)S[C@@H]1CC2=CC(=O)CC[C@]2(C)[C@H]2CC[C@@]3(C)[C@@H](CC[C@@]34CCC(=O)O4)[C@H]12 | 208 °C | – | – | – | – | – |
| C#CC(=O)OC | – | – | 104 °C | – | – | – |
| Nc1nncs1 | 191 °C | – | – | – | – | – |
| CCCCOCCC | – | – | 118 °C | – | – | – |
| C[C@@H](S)C(=O)O | 12 °C | – | – | – | – | – |
| FC(F)(F)C(Cl)=C(Cl)Cl | – | – | 88.1 °C | – | – | – |
| CSSC | -85 °C | not readily biodegradable | 110 °C | – | 1.46 | -2.92 |
| Cc1ccc(Nc2ccc(C)cc2)cc1 | 79.8 °C | – | 330 °C | – | – | – |
| CC(=O)[C@@]1(O)CC[C@H]2[C@@H]3C[C@H](C)C4=CC(=O)C=C[C@]4(C)[C@@]3(F)[C@@H](O)C[C@@]21C | 297 °C | – | – | – | – | – |
| COC(=O)C(C)O (configuration not stated) | -66 °C | – | 145 °C | – | – | – |
| CC(=O)CCCCBr | – | – | 216 °C | – | – | – |
| O=[N+]([O-])c1ccccc1CCl | 51 °C | – | – | – | – | – |
| CCCCOc1ccc(C(=O)OCCN(CC)CC)cc1 | 146 °C | – | – | – | – | – |
| O=C(O)c1cnc[nH]1 | – | – | 294 °C | – | – | – |

Same assay, conditions: fish

| SMILES | log10 BCF | log10 biotransformation half-life (days) |
| --- | --- | --- |
| N#Cc1ccccc1C#N | 0.7 | -0.67 |
| ClC1(Cl)C2(Cl)C3(Cl)C4(Cl)C(Cl)(Cl)C5(Cl)C3(Cl)C1(Cl)C5(Cl)C24Cl (configuration not stated) | 4.31 | 1.8 |
| N#Cc1nn(-c2c(Cl)cc(C(F)(F)F)cc2Cl)c(N)c1S(=O)C(F)(F)F (configuration not stated) | – | -0.21 |
| CCOP(=S)(OCC)O/N=C(\C#N)c1ccccc1 | 2.91 | – |
| Clc1ccc(-c2cc(Cl)c(Cl)cc2Cl)c(Cl)c1 | – | 2.73 |
